Measured values reported in paper PMC7770045 (Biochemical pharmacology, 2020).

Molecular target: serotonin transporter (SERT) (Rattus norvegicus, UniProt P31652)
Sequence (P31652 whole entry): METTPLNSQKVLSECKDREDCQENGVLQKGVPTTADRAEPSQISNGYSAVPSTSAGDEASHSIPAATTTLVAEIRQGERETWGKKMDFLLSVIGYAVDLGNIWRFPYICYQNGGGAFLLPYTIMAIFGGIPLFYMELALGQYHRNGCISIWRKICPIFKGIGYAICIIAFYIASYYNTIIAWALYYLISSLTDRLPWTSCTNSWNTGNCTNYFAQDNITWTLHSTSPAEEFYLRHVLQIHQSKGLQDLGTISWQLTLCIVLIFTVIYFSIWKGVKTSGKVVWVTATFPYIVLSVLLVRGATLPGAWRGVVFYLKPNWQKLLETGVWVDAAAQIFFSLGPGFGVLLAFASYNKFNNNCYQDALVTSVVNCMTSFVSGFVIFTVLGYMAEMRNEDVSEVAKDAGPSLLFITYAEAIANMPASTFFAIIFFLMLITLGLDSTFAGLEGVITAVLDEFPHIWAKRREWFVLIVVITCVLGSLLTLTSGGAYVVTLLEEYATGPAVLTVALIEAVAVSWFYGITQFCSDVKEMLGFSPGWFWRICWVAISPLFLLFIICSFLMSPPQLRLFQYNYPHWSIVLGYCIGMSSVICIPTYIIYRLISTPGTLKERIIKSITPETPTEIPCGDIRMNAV

NCCc1c[nH]c2ccc(O)cc12 [Serotonin]
Km: 2.21 µM
